Legend:
ACHN-L4 cells = assay: cancer therapy sensitivity test by MTT assay on regenerated tissue (Embodiment 2), renal cancer; assay type: cell-based, human; conditions: novel sensitivity test, ACHN-L4 on RPTEC/NHMC regenerated tissue
hepatoma cells Alex = assay: cancer therapy sensitivity test by MTT assay on regenerated tissue (Embodiment 2), hepatoma; assay type: cell-based, human; conditions: combination of irradiation with cisplatin; Alex on Nheps regenerated tissue
AOI lung cancer cells = assay: cancer therapy sensitivity test by MTT assay, AOI on NHBE in stratified structure, SuSa feeder layer (Embodiment 3); assay type: cell-based, human; conditions: 10 μg/ml for 72 hours
Method: (§1) The cancer therapy sensitivity test was conducted in comparison with a conventional two-dimensional culture MTT assay system.
(§2) In these figures, a column of the cancer name (e.g: AOI) corresponds to the sensitivity of the cancer cells in the two-dimensional culture.
(§3) Also in these figures, the brackets the MTT assay correspond, from the left, the normal epithelial cell name employed (this time a bronchial epithelium (NHBE) or prostatic epithelium (PrEC)), the culture medium (1/10-fold or 1-fold), the fibroblast name employed as a feeder layer (human skin-derived (SUSA) or lung-derived (NHLF)). […] The drug treatments with all of three drugs employed here were conducted at 10 μg/ml for 72 hours.

[1] = tested on: prostatic cancer-derived DU-145 cancer cells; assay: cancer therapy sensitivity test by MTT assay, DU-145 on PrEC in stratified structure, SuSa feeder layer (Embodiment 3); assay type: cell-based, human; conditions: 1/10-fold culture medium, 10 μg/ml for 72 hours
AOI cancer tissue = assay: cancer therapy sensitivity test by MTT assay, AOI on NHBE, lung-derived fibroblasts (NHLF) as feeder layer; assay type: cell-based, human; conditions: 10 μg/ml for 72 hours
AOI tumor = AOI tumor transplanted to a nude mouse; assay type: in vivo
[2] = tested on: regenerated normal bronchial epithelial tissue (NHBE); assay: cancer therapy sensitivity test by MTT assay, regenerated normal tissue, SuSa feeder layer (Embodiment 3); conditions: 10 μg/ml for 72 hours
Method: as §1, §2, §3

[3] = tested on: regenerated normal bronchial epithelial tissue (NHBE); assay: cancer therapy sensitivity test by MTT assay, regenerated normal tissue, lung-derived fibroblasts (NHLF) as feeder layer; assay type: cell-based, human; conditions: 10 μg/ml for 72 hours
Method: as §1, §2, §3

[4] = 1-fold culture medium, lung-derived fibroblast feeder
[5] = 1/10-fold culture medium, lung-derived fibroblasts as feeder

growth of the regenerated normal bronchial epithelial tissue after removing co-cultured AOI cancer tissue ([2]; 1/10-fold culture medium)	sensitivity of the normal tissue in 3-dimensional culture [3, 4]	sensitivity of tissue in MTT assay [3, 5]	Structure (SMILES)	sensitivity of cancer cells in the MTT assay (ACHN-L4 cells)	MTT assay result compared with the HDRA method (hepatoma cells Alex)	tendency of 3-dimensional tissue to be more resistant than two-dimensional culture (AOI lung cancer cells; degree influenced by growth factor level in medium)	sensitivity of DU-145 cancer cells compared with the AOI cells [1]	difference in the sensitivity of the AOI cancer tissue by the difference in the fibroblasts (AOI cancer tissue; 1-fold culture medium, lung-derived vs skin-derived fibroblast feeder)	body weight of the nude mouse reduced to (fraction) (AOI tumor; cisplatin at 10 mg/kg)	tumor growth (AOI tumor; cisplatin at 10 mg/kg, nude mouse)	proliferation of regenerated normal tissue ([2]; 1-fold culture medium, 5FU alone)	sensitivity of the AOI cancer cell tissue in 3-dimensional culture (AOI cancer tissue; [4])	sensitivity of tissue in MTT assay (AOI cancer tissue; [5])	resistance of 3-dimensional AOI cancer tissue coexisting with the normal tissue compared with 2-dimensionally cultured AOI cells (AOI lung cancer cells; 1/10-level medium, drug alone)	resistance of 3-dimensionally growing normal tissue ([2]; 1-fold level culture medium, drug alone)	resistance of 3-dimensional normal tissue coexisting with the cancer tissue compared with the normal tissue alone ([2]; 1/10-level medium, drug alone)	difference in sensitivity between the skin-derived and lung-derived fibroblasts (AOI cancer tissue; 1/10-fold culture medium)	sensitivity of AOI tumor to mitomycin compared with cisplatin (AOI tumor; nude mouse-transplanted tumor)
			N.N.[Cl][Pt][Cl] [cisplatin]	highly sensitive	exhibited the difference in the effect	tendency described above was observed also	rather resistant	small	about ⅔	retarded growth was observed only for several days								
tendency of the promotion of the growth	reduced sensitivity	no tissue exhibited any sensitivity	O=c1[nH]cc(F)c(=O)[nH]1 [5FU]				highly sensitive				proliferation was rather promoted	reduced sensitivity	no tissue exhibited any sensitivity					
			CO[C@@]12[C@H](COC(N)=O)C3=C(C(=O)C(C)=C(N)C3=O)N1C[C@@H]1N[C@@H]12 [MMC, mitomycin]											more resistant	rather more resistant	rather more resistant	no substantial difference	rather more sensitive

Source: patent US9695396B2, “Regenerated tissue comprising a stratified structure of epithelial cells” (JAPAN SCIENCE AND TECHNOLOGY CORPORATION, priority 2001, dated 2017)
